Consider 15 molecules from US9284308B2, “Methylene linked quinolinyl modulators of RORγt” (Janssen Pharmaceutica NV, priority 2013, dated 2016).

What is called pKd is the negative decadic logarithm of the Kd, by convention in mol/L. Read a high pKd as a low Kd. For orientation: pIC50 means the IC50 on a negative log10 scale, so that one unit is a factor of ten. Read a low pIC50 as a high IC50. As usually defined, the inhibition is the drop in the measured response relative to a control, in per cent.

The target in experiment [1] is T1, human RORγt ligand binding domain (RORγt LBD) (Homo sapiens, UniProt P51449).
T1 construct: His-tag (N); TurboTEV protease cleavage site (ENLYFQG) (N); made in house; host or cells: E. coli (pHIS1, modified pET vector)
T1 sequence (P51449 with tags, fused parts or gaps): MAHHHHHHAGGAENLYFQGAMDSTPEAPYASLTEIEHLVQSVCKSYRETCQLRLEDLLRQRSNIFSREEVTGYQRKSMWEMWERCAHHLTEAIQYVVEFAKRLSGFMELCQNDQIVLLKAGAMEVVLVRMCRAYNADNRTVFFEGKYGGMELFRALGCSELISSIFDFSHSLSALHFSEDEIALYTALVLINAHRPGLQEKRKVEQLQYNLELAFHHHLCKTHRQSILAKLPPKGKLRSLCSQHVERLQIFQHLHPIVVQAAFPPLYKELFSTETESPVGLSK
Kind of experiment: RORγt ThermoFluor assay (ligand binding affinity from protein thermal stability). Here is the method:
This approach is applicable to a wide variety of systems, and rigorous in theoretical interpretation through quantitation of equilibrium binding constants (KD).
The shift in the melting point described as a ΔTm is proportional to the concentration and affinity of the ligand.
RORγt ThermoFluor® Assay Construct
Protein and compound solutions are dispensed into black 384-well polypropylene PCR microplates (Abgene) and overlayed with silicone oil (1 μL, Fluka, type DC 200) to prevent evaporation.
Bar-coded assay plates are robotically loaded onto a thermostatically controlled PCR-type thermal block and then heated at a typical ramp-rate of 1° C./min for all experiments. Fluorescence was measured by continuous illumination with UV light (Hamamatsu LC6) supplied via fiber optic and filtered through a band-pass filter (380-400 nm; >6 OD cutoff). Fluorescence emission of the entire 384-well plate was detected by measuring light intensity using a CCD camera (Sensys, Roper Scientific) filtered to detect 500±25 nm, resulting in simultaneous and independent readings of all 384 wells. Images were collected at each temperature, and the sum of the pixel intensity in a given area of the assay plate was recorded versus temperature. Reference wells contained RORγt without compounds, and the assay conditions were as follows: • 0.065 mg/mL RORγt • 60 μM 1,8-ANS • 100 mM Hepes, pH 7.0 • 10 mM NaCl • 2.5 mM GSH • 0.002% Tween-20
Project compounds were arranged in a pre-dosed mother plate (Greiner Bio-one) wherein compounds are serially diluted in 100% DMSO by 1:2 from a high concentration of 10 mM over 12 columns within a series (column 12 is a reference well containing DMSO, no compound). The compounds were robotically dispensed directly into assay plates (1×=[…]) using a Hummingbird capillary liquid handling instrument (Digilab). Following compound dispense, protein and dye in buffer was added to achieve the final assay volume of 3 μL, followed by 1 μL of silicone oil.
For orientation: Differential scanning fluorimetry follows unfolding on heating by fluorescence.

A further experiment addresses T2, human RORγt LBD (Homo sapiens, UniProt P51449).
T2 construct: expressed in transfected cells; host or cells: HEK293T
T2 sequence (P51449 258-518): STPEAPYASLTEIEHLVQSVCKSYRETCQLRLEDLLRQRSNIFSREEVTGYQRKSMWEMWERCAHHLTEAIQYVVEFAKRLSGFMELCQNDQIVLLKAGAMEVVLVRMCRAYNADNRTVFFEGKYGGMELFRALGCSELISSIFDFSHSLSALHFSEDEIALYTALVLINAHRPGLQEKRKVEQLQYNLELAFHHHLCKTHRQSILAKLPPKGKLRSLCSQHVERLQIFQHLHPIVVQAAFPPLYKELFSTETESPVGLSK
The experiment is described as follows: RORγt (LBD) reporter assay in HEK293T cells. The format is cell-based. The settings on record: for inhibition at 6 µM: HEK-293T, read-out: RORγt (LBD) Reporter Assay, % inhibition @ 6 μM, 6 μM compound; for RORγt (LBD) Reporter Assay, % inhibition @ 6 μM: 6 μM compound. From the text:
RORγt (LBD) Reporter Assay
Cells used in the assay were co-transfected with two constructs. The first construct, pBIND-RORγt LBD, contained the wild type human RORγt LBD fused to the DNA binding domain of the GAL4 protein. The second construct, pGL4.31 (Promega Cat no. C935A), contained multiple GAL4 responsive DNA elements upstream of firefly luciferase. […] The mutant construct was called pBIND-RORγt-AF2.
The pBIND vector contains the GAL4 DNA Binding Domain (GAL4 DBD) and the renilla luciferase gene under control of the SV40 promoter. Renilla luciferase expression serves as a control for transfection efficiency and cell viability.
The reporter assay was performed by transiently transfecting HEK293T cells with 5 μg of pBIND-RORγt LBD or pBIND-RORγt LBD-AF2 and 5 μg pGL4.31 (Promega Cat no. C935A) using Fugene 6 (Invitrogen Cat no. E2691) at a 1:6 ratio of DNA:Fugene 6 in a T-75 flask in which cells were at least 80% confluent. Twenty four hours after bulk transfection, cells were plated into 96-well plates at 50,000 cells/well in phenol-red free DMEM containing 5% Lipid Reduced FCS and Pen/Strep. Six hours after plating, cells were treated with compounds for 24 hours. Media was removed and cells were lysed with 50 μL 1× Glo Lysis Buffer (Promega). Dual Glo Luciferase Reagent (50 μL/well) was then added and firefly luciferase luminescence was read on an Envision after a ten minute incubation. Finally, Stop and Glo reagent (50 μL/well) was added and renilla luciferase luminescence was read on an Envision after a ten minute incubation. […] Agonist compounds increase RORγt-driven luciferase expression, and antagonist or inverse agonist compounds decrease luciferase expression.
(In general: A reporter such as luciferase makes a cellular process visible.)

pIC50, pKd: −log10 of the molar value. Several values for one entry are separate records, joined by “and”; a condition that tells them apart may be missing. Equal values may be shown once. Where a name gives a salt, the structure may show the parent alone. Bounds are passed on as bounds.

`COc1nc2ccc(C(c3ccc(C)nc3C)(c3cnnn3C)N(C)C)cc2c(Cl)c1Cc1ccc(C(F)(F)F)cc1` (single isomer, unassigned) [Example 122c, 1-(4-Chloro-2-methoxy-3-(4-(trifluoromethyl)benzyl)quinolin-6-yl)-1-(2,6-dimethylpyridin-3-yl)-N,N-dimethyl-1-(1-methyl-1H-1,2,3-triazol-5-yl)methanamine•TFA] showed a pKd in experiment [1] of 8.66. Moreover, the pIC50 against human RORγt LBD was 7.06.

In experiment [1], `CNC(c1ccc2nc(OC)c(Cc3ccc(C(F)(F)F)cc3)c(Cl)c2c1)(c1ccc(C)nc1C)c1cnnn1C` (single isomer, unassigned) [Example 121b, 1-(4-Chloro-2-methoxy-3-(4-(trifluoromethyl)benzyl)quinolin-6-yl)-1-(2,6-dimethylpyridin-3-yl)-N-methyl-1-(1-methyl-1H-1,2,3-triazol-5-yl)methanamine•TFA] had a pKd of 6.43. The molecule also had a pIC50 against human RORγt LBD of 6.39.

In experiment [1], `CC(=O)N1CCC(C(O)(c2ccc3nc(C(F)(F)F)c(Cc4ccccc4)c(Cl)c3c2)c2cncn2C)CC1` (single isomer, unassigned) [Example 115b, 1-(4-((3-Benzyl-4-chloro-2-(trifluoromethyl)quinolin-6-yl)(hydroxy)(1-methyl-1H-imidazol-5-yl)methyl)piperidin-1-yl)ethanone•TFA] showed a pKd of 7.24. Besides, the pIC50 against human RORγt LBD is 6.32.

`Cn1cncc1C(O)(c1ccc(C(F)(F)F)nc1)c1ccc2nc(-c3nccn3C)c(Cc3ccccc3)c(Cl)c2c1` (single isomer, unassigned) [Example 113c, (3-Benzyl-4-chloro-2-(1-methyl-1H-imidazol-2-yl)quinolin-6-yl)(1-methyl-1H-imidazol-5-yl)(6-(trifluoromethyl)pyridin-3-yl)methanol•TFA] had a pKd in experiment [1] of 5.92. The molecule also had a negative-log IC50 (pIC50) against human RORγt LBD of roughly 5.70.

The molecule `COc1nc2ccc(C(O)(c3ccc(C)nc3C)c3cnnn3C)cc2c(C#N)c1Cc1ccc(F)cc1` (stereo not drawn) [Example 49a, 6-((2,6-Dimethylpyridin-3-yl)(hydroxy)(1-methyl-1H-1,2,3-triazol-5-yl)methyl)-3-(4-fluorobenzyl)-2-methoxyquinoline-4-carbonitrile] gave a pKd in experiment [1] of 8.77. For the same molecule, at human RORγt LBD, the pIC50 is 7.28 and the inhibition at 6 µM was determined as 84%.

The molecule `COc1nc2ccc(C(N)(c3ccc(C(F)(F)F)nc3)c3cncn3C)cc2c(Cl)c1Cc1ccccc1` (single isomer, unassigned) [Example 120b, (3-Benzyl-4-chloro-2-methoxyquinolin-6-yl)(1-methyl-1H-imidazol-5-yl)(6-(trifluoromethyl)pyridin-3-yl)methanamine•TFA] had a pKd in experiment [1] of 6.89. The same molecule had a pIC50 at human RORγt LBD of less than 5.22.

The molecule `COc1nc2ccc(C(O)(c3ccc(C)nc3C)c3cnnn3C)cc2c(Cl)c1Cc1ccc(F)cc1` (stereo not drawn) [Example 48a, (4-Chloro-3-(4-fluorobenzyl)-2-methoxyquinolin-6-yl)(2,6-dimethylpyridin-3-yl)(1-methyl-1H-1,2,3-triazol-5-yl)methanol] showed a negative-log Kd (pKd) in experiment [1] of 9.07. Besides, at human RORγt LBD, the negative-log IC50 (pIC50) was 6.35 and the inhibition at 6 µM came out at 61%.

`COc1nc2ccc(C(O)(c3ccc(Cl)cc3)c3cncn3C)cc2c(Cl)c1Cc1ccc(C(F)(F)F)nc1` (single isomer, unassigned) [Example 39b] had a pKd in experiment [1] of 5.96. On human RORγt LBD, the pIC50 is 5.92 and the inhibition at 6 µM is 86%.

Turning to `COc1nc2ccc(C(O)(c3ccc(C)nc3C)c3cnnn3C)cc2c(C#N)c1Cc1ccc(F)cc1` (single isomer, unassigned) [Example 49c, 6-((2,6-Dimethylpyridin-3-yl)(hydroxy)(1-methyl-1H-1,2,3-triazol-5-yl)methyl)-3-(4-fluorobenzyl)-2-methoxyquinoline-4-carbonitrile], the negative logarithm of the Kd (pKd) in experiment [1] is 8.57. Besides, at human RORγt LBD, the pIC50 is 7.42 and ~7.70; the “RORγt (LBD) Reporter Assay, % inhibition @ 6 μM” value (from here on “RORγt … % inhibition @ 6 μM”) was determined as 83%.

In experiment [1], `COc1nc2ccc(C(O)(c3ccc(C(F)(F)F)cc3)c3cccnc3)cc2c(Cl)c1Cc1ccc(-n2cccn2)cc1` (single isomer, unassigned) [Example 162b] had a pKd of 4.80. At human RORγt LBD, the pIC50 is 5.96 and the inhibition at 6 µM is 81%.

In turn, `COc1nc2ccc(C(O)(c3ccc(C)nc3C)c3cnnn3C)cc2c(C#N)c1Cc1ccc(F)cc1` (single isomer, unassigned) [Example 49b, 6-((2,6-Dimethylpyridin-3-yl)(hydroxy)(1-methyl-1H-1,2,3-triazol-5-yl)methyl)-3-(4-fluorobenzyl)-2-methoxyquinoline-4-carbonitrile] had a negative-log Kd (pKd) in experiment [1] of 6.39. Also, on human RORγt LBD, the pIC50 is roughly 5.52 and the “RORγt … % inhibition @ 6 μM” value worked out at 62%.

`Cn1cncc1C(O)(c1ccc(C(F)(F)F)nc1)c1ccc2nc(-n3cccn3)c(Cc3ccccc3)c(C#N)c2c1` (single isomer, unassigned) [Example 114c, 3-Benzyl-6-(hydroxy(1-methyl-1H-imidazol-5-yl)(6-(trifluoromethyl)pyridin-3-yl)methyl)-2-(1H-pyrazol-1-yl)quinoline-4-carbonitrile•TFA] had a pKd in experiment [1] of 6.15. The same molecule gave a pIC50 against human RORγt LBD of 5.72.

The molecule `COc1nc2ccc(C(O)(c3ccc(Cl)cc3)c3cncn3C)cc2c(Cl)c1Cc1cccc(C#N)c1` (stereo not drawn) [Example 70, 3-((4-Chloro-6-((4-chlorophenyl)(hydroxy)(1-methyl-1H-imidazol-5-yl)methyl)-2-methoxyquinolin-3-yl)methyl)benzonitrile•TFA] had a pKd in experiment [1] of 6.92. In addition, on human RORγt LBD, the pIC50 is 6.37 and the inhibition at 6 µM amounted to 94%.

`COc1nc2ccc(C(O)(c3oc(C)nc3C)c3cnnn3C)cc2c(Cl)c1Cc1ccc(C(F)(F)F)cc1` (single isomer, unassigned) [Example 156b, (4-chloro-2-methoxy-3-(4-(trifluoromethyl)benzyl)quinolin-6-yl)(2,4-dimethyloxazol-5-yl)(1-methyl-1H-1,2,3-triazol-5-yl)methanol]: the negative logarithm of the Kd (pKd) in experiment [1] is 7.12. Also, at human RORγt LBD, the pIC50 was 7.06 and the inhibition at 6 µM was determined as 98%.

Consider `COc1nc2ccc(C(O)(c3oc(C)nc3C)c3cnnn3C)cc2c(Cl)c1Cc1ccc(C(F)(F)F)cc1` (single isomer, unassigned) [Example 156c, (4-chloro-2-methoxy-3-(4-(trifluoromethyl)benzyl)quinolin-6-yl)(2,4-dimethyloxazol-5-yl)(1-methyl-1H-1,2,3-triazol-5-yl)methanol], for which, in experiment [1], the pKd was 9.23. Also, at human RORγt LBD, the negative logarithm of the IC50 (pIC50) was 8.72 and the “RORγt … % inhibition @ 6 μM” value turned out to be 99%.
